Laboratory results published in patent US20080090788A1, “Chemical Compounds” (priority 2005, published 2008).

Assays:
NF-kB = NF-kB luciferase reporter activity in LPS-stimulated U937-kBluc cells; type: cell-based, human; conditions: for IC50: Homo sapiens, U937-kBluc cells, LPS 0.3 μg/ml, 6 hours, mean of duplicate determinations ±SD, read-out: IC50 for inhibition of LPS-induced NF-kB activity
Procedure: U937-kBluc cells were cultured in a 96 well plate (2×10^4 cells in 100 μl in each well) and stimulated with 0.3 μg/ml LPS (lipopolysaccaride; Sigma Aldrich). After 6 hours, cells were collected and luciferase activity determined using the luclite reagent (Perkin Elmer UK, Beaconsfield, UK) and a Packard TopCount (Perkin Elmer), as described by the manufacturer. To determine the effect of SFZ and analogues, various concentrations of each compound or an equivalent amount of DMSO as a solvent control were added 1 hour prior to addition of LPS. Each determination was made in triplicate. A cell line containing an NF-kB reporter construct was used to determine the effects of SFZ analogues on NF-kB activity. Cells were treated with LPS to induce NF-kB activity in the presence or absence of each compound, or DMSO as a solvent control, and luciferase activity analysed as a measure of NF-kB dependent transcription (FIG. 1). […] U937-kBluc cells were treated with LPS to activate NF-kB in the presence of increasing concentrations of SFZ, derivatives (3a-f), or DMSO as a solvent control. For each concentration of compound, the percentage inhibition of luciferase activity relative to cells treated with an equivalent amount of DMSO was calculated. (A) Representative dose response experiment (♦, 3a; ▪, SFZ). Each data point is the mean of triplicate samples (±SEM). (B) Detailed dose response assays were performed for compounds which gave >50% inhibition at 2 mM. The mean IC50 value (±SD) for inhibition of LPS-induced NF-kB activity is derived from 2 independent experiments, each performed in triplicate.

CLL cells = assay: CLL apoptosis by PARP cleavage; type: cell-based, human; conditions: 6 hours; for PARP cleavage in CLL cells compared with SFZ: 0.5 mM, three patient samples
Procedure: CLL apoptosis was quantified by analysing PARP which is cleaved by effector caspases during apoptosis. CLL cells isolated from three individual patients were recovered from storage in liquid nitrogen and cultured at a density of 1.25×10^6 cells in 1 ml of growth medium (RPMI 1640, 10% (v/v) FCS and antibiotics). After 1 hour, […] were treated with compounds. Cells were harvested 6 hours after addition of compound, resuspended in 1×SDS-PAGE sample buffer and sonicated prior to immunoblot analysis for PARP expression as described below. PARP cleavage was quantified by determining the amount of cleaved PARP as a percentage of total PARP expression by digital image analysis.
The ability of SFZ and the analogues to induce CLL apoptosis was analysed. CLL cells from 3 individual patients were treated with SFZ for 6 hours and apoptosis was quantified by analysing PARP cleavage. […] The amount of apoptosis induced by SFZ and compounds 3a and 3f (at 0.5 mM) was compared.
(A) CLL cells from three different patients were cultured in the presence of SFZ or compounds 3a and 3f (all at 0.5 mM), or DMSO as a solvent control. After 6 hours, the degree of PARP cleavage was determined as a measure of apoptosis. […] Note that compound 3f was not tested in cells from patient 3. (B) HSC were cultured in the presence of SFZ (1 mM), compounds 3a (0.150 mM), 3e (0.127 mM), 3f (0.089 mM), or DMSO as a solvent control. Analogues were used at the concentration that gave 50% inhibition of NF-kB transcriptional activity in U937 cells. After 20 hours, the proportion of apoptotic cells were visualised by acridine orange staining. Apoptotic cells were counted in five fields in duplicate for each concentration, in two independent experiments and results expressed as mean ±SEM,

TIMP1 promoter = TIMP1 promoter luciferase activity in transfected activated HSC; type: cell-based; conditions: SFZ 1 mM, 3a 0.150 mM, 3e 0.127 mM, 3f 0.089 mM, 24 hours, rat HSC
Procedure: (§1) For HSC transfections, activated HSC were transfected by the non-liposomal Effectene protocol (Qiagen, UK) using 1 μg reporter plasmid DNA and 10 ng of control Renilla plasmid pRLTK (Promega, Southampton, UK) according to the manufacturer's instructions. After 24 hours, HSC were treated with test compounds for a further 24 hours. Luciferase assays were performed using a dual luciferase kit (Promega) according to the manufacturer's instructions. Firefly luciferase activities were normalised for differences in transfection efficiency by measurement of the activity of the co-transfected pRLTK. The pIκBα wt-Luc plasmid contains nucleotides −332 to +35 of the human IkB-α promoter cloned upstream of luciferase gene (Oakley F, et al, J Biol Chem 2003; 278: 24359-70). The pTIMP1-Luc plasmid contains the 162 bp human TIMP1 minimal promoter cloned upstream of luciferase gene (Bertrand-Philippe M, et al. J Biol Chem 2004; 279: 24530-9). The pAP1-Luc plasmid (Stratagene, UK) contains 7 copies of a consensus AP-1 binding site upstream of the minimal promoter and the luciferase gene.
(§2) To extend these findings, further analyses were performed using the […] promoter which contains multiple NF-kB binding sites and is a well studied NF-kB target. […] Consistent with the presence of activated NF-kB in HSC, (Wright M C et al, Gastroenterology 2001; 121: 685-98.) the IkB-α promoter was activated in HSC (FIG. 2a). SFZ (1 mM) inhibited promoter activity by >60%. […] Therefore, the improved inhibitory activity of analogues 3a, 3e and 3f is specific for NF-kB mediated transcription and is not restricted to U937 cells or artificial promoter constructs.
(§3) Rat HSC were transfected with (A) IkB-α-Luc, (B) TIMP1-Luc or (C) pAP-1-Luc reporter constructs. After 24 hours, cells were treated with sulfasalazine (1 mM), 3a (0.150 mM), 3e (0.127 mM), 3f (0.089 mM), or treated with DMSO as a control. Luciferase activity was determined after another 24 hours. Data presented are mean luciferase activity (±SEM) relative to control cells (value set to 100), derived from two separate experiments, each performed in duplicate and using an independent preparation of HSC.

IkB-α promoter = IkB-α promoter luciferase activity in transfected activated HSC; type: cell-based; conditions: 24 hours, rat HSC; for inhibition of IkB-α promoter activity compared with SFZ 1 mM: 3a 0.150 mM, 3e 0.127 mM, 3f 0.089 mM (at IC50)
Procedure: as §1, §2, §3

[1] = system: AP-1 transcription factor binding sites; assay: AP-1 reporter construct luciferase activity in transfected activated HSC; type: cell-based; conditions: SFZ 1 mM, 3a 0.150 mM, 3e 0.127 mM, 3f 0.089 mM, 24 hours, rat HSC
Procedure: as §1, §2, §3

Row | Compound | IC50 (NF-kB) | improved inhibitory activity relative to SFZ (NF-kB; NF-kB inhibition, LPS treated U937 cells) | PARP cleavage in CLL cells compared with SFZ (CLL cells) | effect on TIMP1 promoter activity (TIMP1 promoter) | inhibition of IkB-α promoter activity compared with SFZ 1 mM (IkB-α promoter) | effect on activity of AP-1 reporter construct [1] | induction of apoptosis (PARP cleavage) in CLL cells (CLL cells; cells from 3 patients, dose response) | inhibition at 1000 µM (IkB-α promoter; SFZ 1 mM)
1 | COc1ccc(CNS(=O)(=O)c2ccc(/N=N/c3ccc(O)c(C(=O)O)c3)cc2)cc1 [Compound 3a, 2-hydroxy-5-[4-(4-methoxy-benzylsulfamoyl)-phenylazo]-benzoic acid] | 150 ± 27 µM | 7 fold | induced more PARP cleavage than SFZ | neither SFZ or the analogues interfered with TIMP1 promoter activity | approximately equally effective | neither SFZ or the analogues interfered | – | –
2 | O=C(O)c1cc(/N=N/c2ccc(S(=O)(=O)NCc3ccc(C(F)(F)F)cc3)cc2)ccc1O [Compound 3f, 2-hydroxy-5-[4-(4-trifluoromethyl-benzylsulfamoyl)-phenylazo]-benzoic acid] | 89 ± 26 µM | – | induced more PARP cleavage than SFZ | neither SFZ or the analogues interfered with TIMP1 promoter activity | approximately equally effective | neither SFZ or the analogues interfered | – | –
3 | O=C(O)c1cc(/N=N/c2ccc(S(=O)(=O)Nc3ccccn3)cc2)ccc1O [SFZ, Sulfasalazine, reference compound] | 1190 ± 96 µM | – | – | neither SFZ or the analogues interfered with TIMP1 promoter activity | – | neither SFZ or the analogues interfered | induced dose dependent apoptosis | > 60%
4 | Cc1cc(/N=N/c2ccc(S(=O)(=O)NCc3ccc(C(F)(F)F)cc3)cc2)cc(C(=O)O)c1O [Compound 3e, 2-hydroxy-3-methyl-5-[4-(4-trifluoromethyl-benzylsulfamoyl)-phenylazo]-benzoic acid] | 127 ± 19 µM | – | – | neither SFZ or the analogues interfered with TIMP1 promoter activity | approximately equally effective | neither SFZ or the analogues interfered | – | –
